Laboratory results published in ChEMBL document CHEMBL1152802, “Discovery of novel Trypanosoma cruzi glyceraldehyde-3-phosphate dehydrogenase inhibitors” (Bioorg Med Chem, 2009).

Assays:
[1] = target: Glyceraldehyde-3-phosphate dehydrogenase, glycosomal (Trypanosoma cruzi, UniProt P22513); experiment: (§1) Inhibition of Trypanosoma cruzi recombinant glycosomal GAPDH expressed in Escherichia coli by spectrophotometry
Trypanosoma cruzi [2] = experiment: Antitrypanosomal activity against Trypanosoma cruzi amastigote forms; format: functional, organism-based
[3] = target: Glyceraldehyde-3-phosphate dehydrogenase, glycosomal (Trypanosoma cruzi) (UniProt P22513); experiment: as §1; settings: concentration not given here
Chain of Glyceraldehyde-3-phosphate dehydrogenase, glycosomal (Trypanosoma cruzi) (P22513 whole entry): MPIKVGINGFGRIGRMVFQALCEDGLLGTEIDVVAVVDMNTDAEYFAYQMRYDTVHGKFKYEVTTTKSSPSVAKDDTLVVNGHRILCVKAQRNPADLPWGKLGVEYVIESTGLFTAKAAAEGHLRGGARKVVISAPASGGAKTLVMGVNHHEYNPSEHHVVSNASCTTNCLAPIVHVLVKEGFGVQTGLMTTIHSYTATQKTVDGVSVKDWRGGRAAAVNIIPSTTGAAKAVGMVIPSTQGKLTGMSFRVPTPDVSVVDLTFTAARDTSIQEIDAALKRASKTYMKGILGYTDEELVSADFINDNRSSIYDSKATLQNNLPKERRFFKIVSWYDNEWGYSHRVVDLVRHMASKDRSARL

Leishmania amazonensis = experiment: Antileishmanial activity against Leishmania amazonensis amastigote forms at 841 uM; format: functional
Ehrlich = experiment: Cytotoxicity against mouse Ehrlich carcinoma cells; format: functional, cell-based
Trypanosoma cruzi [4] = experiment: Antitrypanosomal activity against Trypanosoma cruzi amastigote forms at 841 uM; format: functional

Chain of Glyceraldehyde-3-phosphate dehydrogenase, glycosomal (P22513 whole entry): as above

| Compound | IC50 [1] [µM] | other results |
| --- | --- | --- |
| O=c1c(O[C@@H]2OC[C@H](O)[C@H](O)[C@H]2O)c(-c2ccc(O)c(O)c2)oc2cc(O)cc(O)c12 [GUAJAVERIN] | 140 |  |
| O=c1c2cc(O)c(O)cc2oc2cc(O)c([C@@H]3O[C@H](CO)[C@@H](O)[C@H](O)[C@H]3O)c(O)c12 [MANGIFERIN] | 149 |  |
| C[C@H]1[C@H](C)CC[C@]2(C(=O)O)CC[C@]3(C)C(=CC[C@@H]4[C@@]5(C)CC[C@H](O)C(C)(C)[C@@H]5CC[C@]43C)[C@H]12 [URSOLIC ACID] |  | IC50 (Trypanosoma cruzi [2]): 4 µM; inhibition [3]: 25% |
| C=CC(C)(C)c1cc2cc3c(cc2oc1=O)O[C@H](C(C)(C)O)C3 [CHALEPIN] | 64 |  |
| CCCCCC/C=C/CCCCCCCc1cccc(O)c1C(=O)O | 161 |  |
| O=c1c(O)c(-c2ccc(O)c(O)c2)oc2cc(O)cc(O)c12 [QUERCETIN] | 142 | IC50 (Trypanosoma cruzi [2]): 771 µM |
| O=c1ccc2ccc(O)cc2o1 [UMBELLIFERONE] | 617 |  |
| O=c1ccc2ccccc2o1 [COUMARIN] | 692 |  |

More lines, in order of falling IC50 [1], values ahead:

| IC50 [1] [µM] | Compound | other results |
| --- | --- | --- |
| 84 | COc1ccc(-c2coc3cc(O)c(OC)cc3c2=O)cc1 [CASTANIN] |  |
| 81 | COc1cc2oc(-c3cc(OC)c(OC)c(OC)c3)cc(=O)c2cc1OC |  |
| 69 | CCC/C=C/C/C=C/CCCCCCCc1cccc(O)c1C(=O)O |  |
| 46 | O=C(/C=C/c1ccc(O)cc1)OC[C@H]1O[C@@H](Oc2c(-c3ccc(O)cc3)oc3cc(O)cc(O)c3c2=O)[C@H](O)[C@@H](O)[C@@H]1O [TILIROSIDE] | Activity (Leishmania amazonensis): 67.8%; IC50 (Ehrlich): 69.5 µM; Activity (Trypanosoma cruzi [4]): 45% |
| 38 | C=CC/C=C/C/C=C/CCCCCCCc1cccc(O)c1C(=O)O |  |
| 17.8 | CC(=O)Oc1ccc(-c2cc3cc(OC(C)=O)c(OC(C)=O)cc3oc2=O)cc1OC(C)=O |  |
| 12 | COc1cccc(C(=O)N[C@@H]2[C@H](O)[C@@H](CO)O[C@H]2n2cnc3c(NCc4cccc5ccccc45)ncnc32)c1 |  |
| 5 | COc1cccc(C(=O)N[C@@H]2[C@H](O)[C@@H](COP(=O)(O)O)O[C@H]2n2cnc3c(NCc4cccc5ccccc45)ncnc32)c1 |  |
